US9115143B2, “Substituted indole derivatives as gamma secretase modulators” (Janssen Pharmaceuticals, Inc., priority 2011, dated 2015)

Experiments:
[1] = tested on: Aβ38; assay: In vivo efficacy B-2b: brain soluble Aβ38, MSD electrochemiluminescence multiplex; conditions: mouse brain soluble fraction, dose 30 mg/kg oral dosing, 4 h after dose; untreated control set at 100; read-out: Aβ38 (% vs Ctrl)_Mean
Source text: (§1) To determine whether acute administration of an Aβ38 increasing agents would increase Aβ38 levels in vivo, non-transgenic rodents, e.g. mice or rats were used. Animals treated with the Aβ38 increasing agents were examined and compared to those untreated or treated with vehicle and brain levels of soluble Aβ42, Aβ40, Aβ38, and Aβ37 were quantitated by MSD electrochemiluminescence detection technology. Treatment periods varied from hours (h) to days and were adjusted based on the results of the Aβ38 increase once a time course of onset of effect could be established.
(§2) A typical protocol for measuring Aβ38 increase in vivo is shown but it is only one of many variations that could be used to optimize the levels of detectable Aβ. For example, Aβ38 increasing agents were formulated in 20% of Captisol® (a sulfobutyl ether of β-cyclodextrin) in water or 20% hydroxypropyl β cyclodextrin. The Aβ38 increasing agents were administered as a single oral dose or by any acceptable route of administration to overnight fasted animals. After 4 h, the animals were sacrificed and Aβ38 levels were analysed.
(§3) Blood was collected by decapitation and exsanguinations in EDTA-treated collection tubes. Blood was centrifuged at 1900 g for 10 minutes (min) at 4° C. and the plasma recovered and flash frozen for later analysis. The brain was removed from the cranium and hindbrain. The cerebellum was removed and the left and right hemisphere were separated. The left hemisphere was stored at −18° C. for quantitative analysis of test compound levels. The right hemisphere was rinsed with phosphate-buffered saline (PBS) buffer and immediately frozen on dry ice and stored at −80° C. until homogenization for biochemical assays.
(§4) Mouse brains from non-transgenic animals were resuspended in 8 volumes of 0.4% DEA (diethylamine)/50 mM NaCl containing protease inhibitors (Roche-11873580001 or 04693159001) per gram of tissue, e.g. for 0.158 g brain, add 1.264 ml of 0.4% DEA. All samples were homogenized in the FastPrep-24 system (MP Biomedicals) using lysing matrix D (MPBio #6913-100) at 6 m/s for 20 seconds. Homogenates were centrifuged at 20800×g for 5 min and supernatants collected. Supernatants were centrifuged at 221.300×g for 50 min. The resulting high speed supernatants were then transferred to fresh eppendorf tubes. Nine parts of supernatant were neutralized with 1 part 0.5 M Tris-HCl pH 6.8 and used to quantify Aβ.
(§5) To quantify the amount of Aβ42, Aβ40, Aβ38, and Aβ37 in the soluble fraction of the brain homogenates, simultaneous specific detection of Aβ42, Aβ40, Aβ38, and Aβ37 was performed using MSD's electro-chemiluminescence multiplex detection technology. In this assay purified monoclonal antibodies specific for Abeta37 (JRD/Aβ37/3), Abeta38 (J&JPRD/Aβ38/5), Abeta40 (JRF/cAβ40/28), and Abeta42 (JRF/cAβ42/26) were coated on MSD 4-plex plates. Briefly, the standards (a dilution of synthetic Aβ42, Aβ40, Aβ38, and Aβ37) were prepared in 1.5 ml Eppendorf tube in Ultraculture, with final concentrations ranging from 10000 to 0.3 pg/m. The samples and standards were co-incubated with Sulfo-tag labelled JRF/rAβ/2 antibody to the N-terminus of Aβ as detector antibody. 50 μl of conjugate/sample or conjugate/standards mixtures were then added to the antibody-coated plate. The plate was allowed to incubate overnight at 4° C. in order to allow formation of the antibody-amyloid complex. Following this incubation and subsequent wash steps the assay was finished by adding read buffer according to the manufacturer's instructions (Meso Scale Discovery, Gaitherburg, Md.).
(§6) The SULFO-TAG emits light upon electrochemical stimulation initiated at the electrode. MSD Sector instrument SI6000 was used for signal read-out.
In this model a Aβ38 increase compared to untreated animals would be advantageous, in particular a Aβ38 increase with at least 10%, more in particular a Aβ38 increase with at least 20%. […]

[2] = tested on: Aβ42; assay: Screening for γ-secretase-modulating activity: Aβ42 in supernatant of SKNBE2 cells carrying hAPP 695 wild type (Alphalisa); assay type: cell-based, human; conditions: SKNBE2 human neuroblastoma cells carrying hAPP 695 wild type; overnight incubation; Alphalisa on supernatant
Method in brief: (§7)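 SKNBE2 human neuroblastoma cells expressing wild-type hAPP 695 (10^4/well) were incubated overnight at 37 °C, 5% CO2 with compound at several concentrations. Supernatant Aβ42 and Aβtotal measured by AlphaLISA sandwich immunoassays; IC50 from 4-parameter fit of percent of untreated control versus log concentration.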

[3] = tested on: Aβ42; assay: In vivo efficacy B-1b: brain soluble Aβ42, MSD electrochemiluminescence multiplex; conditions: mouse brain soluble fraction, dose 30 mg/kg oral dosing, 4 h after dose; untreated control set at 100; read-out: Aβ42 (% vs Ctrl)_Mean
Source text: as §1, with “Aβ42 lowering agent” for “Aβ38 increasing agents”, “reduce Aβ42” for “increase Aβ38”, “Meso Scale Discovery's (MSD)” for “MSD”, “Aβ42 lowering” for “Aβ38 increase”
as §2, with “measuring Aβ42 lowering” for “measuring Aβ38 increase”, “example, Aβ42 lowering compounds” for “example, Aβ38 increasing agents”, “The Aβ42 lowering” for “The Aβ38 increasing”, “and Aβ42” for “and Aβ38”
as §3, §4, §5, §6
In this model a Aβ42 lowering compared to untreated animals would be advantageous, in particular a Aβ42 lowering with at least 10%, more in particular a Aβ42 lowering with at least 20%. […]

[4] = tested on: Aβtotal; assay: Screening for γ-secretase-modulating activity: Aβtotal in supernatant of SKNBE2 cells carrying hAPP 695 wild type (Alphalisa); assay type: cell-based, human; conditions: SKNBE2 human neuroblastoma cells carrying hAPP 695 wild type; overnight incubation; Alphalisa on supernatant
Method in brief: as §7

[5] = tested on: Aβ40; assay: In vivo efficacy B-1b/B-2b: brain soluble Aβ40, MSD electrochemiluminescence multiplex; conditions: mouse brain soluble fraction, dose 30 mg/kg oral dosing, 4 h after dose; untreated control set at 100; read-out: Aβ40 (% vs Ctrl)_Mean
Source text: as §1, with “Aβ42 lowering agent” for “Aβ38 increasing agents”, “reduce Aβ42” for “increase Aβ38”, “Meso Scale Discovery's (MSD)” for “MSD”, “Aβ42 lowering” for “Aβ38 increase”
as §2, with “measuring Aβ42 lowering” for “measuring Aβ38 increase”, “example, Aβ42 lowering compounds” for “example, Aβ38 increasing agents”, “The Aβ42 lowering” for “The Aβ38 increasing”, “and Aβ42” for “and Aβ38”
as §3, §4, §5, §6
The results are shown in Table 5 (dose 30 mg/kg oral dosing) (value for untreated animals as control (Ctrl) was set at 100): […]

COc1c(C#N)ccc2[nH]c(-c3cn4c(n3)C(c3c(C)cccc3F)OCC4)cc12 (stereo not drawn) [Compound 138, 2-[8-(2-fluoro-6-methylphenyl)-5,6-dihydro-8H-imidazo[2,1-c][1,4]oxazin-2-yl]-4-methoxy-1H-indole-5-carbonitrile]
response vs control in vivo at 30 mg/kg [1]: 117%
IC50 [2]: 19 nM
response vs control in vivo at 30 mg/kg [3]: 75%
IC50 [4]: > 10000 nM
melting point: 297 °C
response vs control in vivo at 30 mg/kg [5]: 90%

COc1c(C#N)ccc2[nH]c(-c3nc4n(n3)CCOC4c3cccc(F)c3C)cc12 (stereo not drawn) [Compound 147, 2-[8-(3-fluoro-2-methylphenyl)-5,6-dihydro-8H-[1,2,4]triazolo[5,1-c][1,4]oxazin-2-yl]-4-methoxy-1H-indole-5-carbonitrile]
response vs control in vivo at 30 mg/kg [1]: 160%
IC50 [2]: 31 nM
response vs control in vivo at 30 mg/kg [3]: 67%
IC50 [4]: > 10000 nM
melting point: 240.4 °C
response vs control in vivo at 30 mg/kg [5]: 79%

COc1c(C#N)ccc2[nH]c(-c3cn4c(n3)C(c3cc(F)ccc3C)OCC4)cc12 (stereo not drawn) [Compound 158, 2-[8-(5-fluoro-2-methylphenyl)-5,6-dihydro-8H-imidazo[2,1-c][1,4]oxazin-2-yl]-4-methoxy-1H-indole-5-carbonitrile]
response vs control in vivo at 30 mg/kg [1]: 140%
IC50 [2]: 23 nM
response vs control in vivo at 30 mg/kg [3]: 66%
IC50 [4]: > 10000 nM
melting point: 280.1 °C
response vs control in vivo at 30 mg/kg [5]: 87%
